Patent US20070073039A1, “Peptides that inhibit viral infections” (priority 2005, published 2007)
No end group written: not given here.

Assays:
HCV [1] = assay: HCV focus reduction assay; assay type: cell-based, Hepatitis C virus (JFH-1); conditions: for Inhibition of HCV infection: cell culture model of HCV infection; for Fold Inhibition: inhibition of HCV infection; for Fold Inhibition / % of Mock: peptide approximately 20 μM, Huh-7.5.1 cells, 3 days; for % of Mock: number of HCV foci as % of mock (0.5% DMSO); for Fold inhibition of HCV infection: peptide library screen, approximately 20 μM; for Focus Reduction (72 h): working concentration 18.4-27.5 μM per peptide, Mock 51
Procedure: To identify peptides that display antiviral activity against HCV infection, the peptide library was screened by an HCV focus reduction assay. The peptides were constituted in 100% DMSO at a final concentration 10 mg/mL, and stored in −20° C. The peptide stock solution was diluted 1:200 to a final concentration approximately 20 μM in complete DMEM growth medium containing 50 focus forming units (ffu) of HCV. The virus-peptide mixture was transferred to Huh-7.5.1 cells at a density of 8000 cells per well in a 96-well plate. After adsorption for 4 hours at 37° C., the inoculum was removed. The cells were washed 2 times, overlaid with 120 μL fresh growth medium and incubated at 37° C. After 3 days of culture, the cells were fixed with paraformaldehyde and immunostained with antibody against HCV nonstructural protein NS5A. The numbers of HCV foci were counted under fluorescent microscopy and the result is expressed as percentage (%) of mock with no peptide treatment but containing solvent 0.5% DMSO.
To determine whether the antiviral activity of peptide 1 is dependent on its primary amino acid sequence, four derivative peptides from peptide 1 were synthesized to a purity >95%. The four derivatives having the same composition of amino acids included (1) the reversed the sequence of peptide 1 (also called retro-peptide); (2) scrambled hydrophobic amino acids; (3) scrambled hydrophilic amino acids; and (4) a derivative in which the aspartic acid residues (D) were replaced with proline residues (P). The antiviral activity of the peptides was examined by HCV focus reduction assay at three peptide concentrations: 18 μM, 6 μM and 2 μM, as described above.

HCV [2] = assay: Intracellular HCV RNA by real time RT-QPCR after infection of Huh-7.5.1 cells with and without peptide; assay type: cell-based, Hepatitis C virus (JFH-1); conditions: for HCV RNA fold inhibition 24 h 25 μM / HCV RNA fold inhibition 72 h 25 μM: Huh-7.5.1 cells, MOI 0.1, normalized to GAPDH; for Fold Inhibition on HCV RNA (24 h) / Fold Inhibition on HCV RNA (72 h): working concentration 18.4-27.5 μM per peptide
Procedure: To accurately quantify the inhibitory effect of the selected peptides on HCV infection, intracellular HCV RNA was measured after infection by real time RT-QPCR with and without peptide treatment. The peptide stock solution was diluted 1:100 and mixed with equal volume of viral supernatant (propagated from day 18 virus preparation post transfection) to a final concentration approximately 20 μM. The virus with peptide or 0.5% DMSO solvent control was then used to infect Huh-7.5.1 cells at a multiplicity of infection (MOI) of 0.1. After an adsorption for 4 hours at 37° C., the inoculum was removed. The cells were washed 2 times, overlaid with 120 μL fresh growth medium and incubated at 37° C. At the indicated time points, total cellular RNA was isolated by the guanidine thiocyanate method. The HCV RNA transcript level was measured by real time RT-QPCR with the primers 5′—
normalized to cellular GAPDH levels.
To define the antiviral action of peptide #1 (SEQ ID NO:43), the antiviral activity of a series of N-terminal and C-terminal truncations of peptide 1 was analyzed using the focus reduction assay and by measuring the reduction in intracellular HCV RNA as described.

Dengue-2 = Dengue-2 infection of Vero cells, Intracellular FACS Assay; assay type: cell-based; conditions: 20 μM, Vero cells 3 days post-infection; for % of Dead cells PI: propidium iodide staining
Procedure: Intracellular FACS Assay: Vero cells were seeded for 24 h pre-infection in 6-well plates. Cells were exposed to Dengue-2 in the presence of increasing concentrations of peptide (or DMSO as control). Viruses and peptide were washed away 2 h post-infection. Cells were taken for intracellular staining 3 days post-infection. Cells were stained with appropriate isotype control, Dengue Env, Dengue capsid or tubulin antibodies. Cells were analyzed by FACS.

[3] = Preliminary in vivo toxicity in mice
Procedure: As a preliminary measurement of the in vivo cytotoxicity of the peptides 1, 2 and 3 (see Table 4) a group of three mice (BALB/c mice, 7 weeks old, about 23 g) were each injected with 92 μg L-type peptide 1 ( ˜4 mg/kg) in 200 μL PBS (spun 14,000 rpm for 3 minutes before injection). In the control group, each of three mice was given 200 μL PBS containing 5% DMSO. The mice were monitored for acute toxicity during the first 3 hours after injection.
No change in appearance, activity or behavior was observed. The mice were then weighed on days 0, 3, 5, 7 and 10. Peptide-injected mice gained weight at the same rate as the controls.

| Molecule | Inhibition of HCV infection (HCV [1]) | Fold Inhibition (HCV [1]) | % of Mock (HCV [1]) | Fold inhibition of HCV infection (HCV [1]) | HCV RNA fold inhibition 24 h 25 μM (HCV [2]) | HCV RNA fold inhibition 72 h 25 μM (HCV [2]) | Focus Reduction (72 h) (HCV [1]) | Fold Inhibition on HCV RNA (24 h) (HCV [2]) | Fold Inhibition on HCV RNA (72 h) (HCV [2]) | also measured |
| --- | --- | --- | --- | --- | --- | --- | --- | --- | --- | --- |
| TLVFDITKLLLAIFGPLW [Peptide 6] | strongly inhibit HCV infection | 100.0 fold | 1.0% | more than ten-fold | 24 fold | 16 fold | – | – | – | – |
| SWLRDIWDWICEVLSD [^C-16mer] | – | – | – | – | – | – | 0 | 9852.6 fold | 234207.1 fold | – |
| SWLRDIWDWI [^C-10mer] | – | – | – | – | – | – | 65 | 0.8 fold | 0.6 fold | % GATED, Dengue α-Capsid (9A7) (Dengue-2; DMSO 41.26): 37.21%; % of Dead cells PI (Dengue-2): 1.2% |
| ATQTFLATCINGVCWTVY [Peptide 12] | strongly inhibit HCV infection | 42.0 fold | 2.4% | more than ten-fold | 8 fold | 5 fold | – | – | – | – |
| CEVLSDFK [^N-8mer] | – | – | – | – | – | – | 53 | 1.1 fold | 0.7 fold | – |
| WDWICEVLSDFK [^N-12mer] | – | – | – | – | – | – | 38 | 2.2 fold | 1.4 fold | – |
| SWLRDIWDWICE [^C-12mer] | – | – | – | – | – | – | 107 | 0.8 fold | 0.5 fold | – |
| SWLRDIWD [^C-8mer] | – | – | – | – | – | – | 58 | 1.3 fold | 1.0 fold | – |
| DWICEVLSDFKTWLKAKL [Peptide 13] | strongly inhibit HCV infection | 42.0 fold | 2.4% | more than ten-fold | 7 fold | 2 fold | – | – | – | – |
| IFLLALLSCLTVPASAYQ [Peptide 8] | strongly inhibit HCV infection | 42.0 fold | 2.4% | more than ten-fold | 18 fold | 7 fold | – | – | – | – |
| DIWDWICEVLSDFK [^N-14mer] | – | – | – | – | – | – | – | – | – | % of Dead cells PI (Dengue-2): 0.76% |
| IMDMIAGAHWGVLAGIAY [Peptide 9] | strongly inhibit HCV infection | 42.0 fold | 2.4% | more than ten-fold | 10 fold | 22 fold | – | – | – | – |
| SWLRDIWDWICEV [^C-13mer] | – | – | – | – | – | – | – | – | – | % of Dead cells PI (Dengue-2): 3.04% |
| WICEVLSDFK [^N-10mer] | – | – | – | – | – | – | 45 | 1.1 fold | 1.0 fold | – |
| WMMLLISQAEAALENLVI [Peptide 4] | strongly inhibit HCV infection | 21.0 fold | 4.8% | more than ten-fold | 27 fold | 40 fold | – | – | – | – |
| ALYVGDLCGSVFLVGQLF [Peptide 7] | strongly inhibit HCV infection | 100.0 fold | 1.0% | more than ten-fold | 20 fold | 11 fold | – | – | – | – |
| LYGNEGCGWAGWLLSPRG [Peptide 10] | – | – | – | – | – | – | – | – | – | % of Dead cells PI (Dengue-2): 4.05% |
| CSCC[C@H](NC(=O)[C@H](CO)NC(=O)[C@H](CS)NC(=O)[C@H](CS)NC(=O)[C@@H](NC(=O)[C@@H](NC(=O)[C@H](CC(=O)O)NC(=O)[C@H](CCC(=O)O)NC(=O)[C@@H](NC(=O)[C@H](CC(=O)O)NC(=O)[C@H](C)NC(=O)CNC(=O)[C@H](CO)NC(=O)[C@@H](N)CO)[C@@H](C)O)C(C)C)C(C)C)C(=O)N[C@@H](CO)C(=O)N[C@@H](Cc1ccc(O)cc1)C(=O)N[C@@H](CO)C(=O)N[C@@H](Cc1c[nH]c2ccccc12)C(=O)O [Peptide 3] | – | – | – | – | – | – | – | – | – | In vivo toxicity observation ([3]; 92 μg ( ˜4 mg/kg) in 200 μL PBS, acute toxicity first 3 hours, weight to day 10): Peptides 1, 2 and 3 are Nontoxic in C57BL/6 Mice; Weight(g) (d.0) ([3]; day 0, ˜4 mg/kg injected): 24.1 g; Weight(g) (d.3) ([3]; day 3): 24.1 g; Weight(g) (d.5) ([3]; day 5): 24.7 g; Weight(g) (d.7) ([3]; day 7): 24.7 g; Weight(g) (d.10) ([3]; day 10): 24.7 g |
| YLYGVGSSIASWAIKWEY [Peptide 11] | strongly inhibit HCV infection | 42.0 fold | 2.4% | more than ten-fold | 9 fold | 7 fold | – | – | – | – |
| GSATLCSALYVGDLCGSV [Peptide 5] | strongly inhibit HCV infection | 100.0 fold | 1.0% | more than ten-fold | 26 fold | 27 fold | – | – | – | – |
